Experiments:
[1] = in vivo
Method: Liver, heart, kidneys, spleen, brain, sternum and spinal cord (cervical thoracic and lumbar) were fixed in formalin, paraffin-embedded, sectioned with a thickness of 4 μm, and stained with H&E. Tissues were analyzed by a board-certified pathologist to investigate treatment-mediated toxicity. These analyses were performed by a board certified pathologist.

[2] = test system: cellular HDAC/CTSL activity; assay: Inhibitory effect of TSA and Z-FY-CHO on cellular HDAC/CTSL activity (Naph-Lys reporter); assay type: cell-based
Method: Detection of cellular HDAC/CTSL activity. Cells were seeded in a 24-well plate at a cell density of 8 k/well, and were allowed to attach for overnight. Naph-Lys (50 μM) in OptiMEM was added and incubated with cells for different time (30 min, 1 h, 2 h, and 4 h). After removal of the OptiMEM and washing with PBS twice, cells were fixed with 4% PFA for 10 min and stained with DAPI (2 ng/mL) for 10 min. Average fluorescence intensity of cells were measured on a GE-Analyzer using DAPI and FITC channels. The DAPI channel was used for determining cell number per well. The FITC channel was used to determine the total fluorescence intensity of released Naph-NH2 per well. Data were presented with the average fluorescence intensity per cell.
Inhibitory effect of TSA and Z-FY-CHO on cellular HDAC/CTSL activity. TSA and Z-FY-CHO are known to be the inhibitor of HDAC and CTSL, respectively. To study their inhibitory effect, cells were seeded in a 24-well plate at a cell density of 8 k/well, and were allowed to attach for overnight. Cells were then divided into 4 groups: group 1 cells were added Naph-Lys (50 μM); group 2 cells were added Naph-Lys (50 μM)+TSA (1 μM); group 3 cells were added Naph-Lys (50 μM)+Z-FY-CHO (20 μM); group 4 cells were added PBS as negative control. […] Average fluorescence intensity of cells were measured on a GE-Analyzer using DAPI and FITC channels.

[3] = test system: MDA-MB-231 breast cancer cells; assay: E-S mediated in vitro labeling of MDA-MB-231 cells; assay type: cell-based
Method: E-S mediated in vitro labeling of MDA-MB-231 cells. MDA-MB-231 breast cancer cells were seeded onto coverslips in a 6-well plate at a cell density of 40 k/well. E-S with a final concentration of 50 μM was added, followed by the addition of either TSA (1 μM) or Z-FY-CHO (50 μM). Cells treated with PBS or E-S only were used as control. After 72-h incubation, the medium was removed and cell samples for confocal imaging and IN cell Analyzer measurements were prepared following the above-mentioned procedures.

[4] = test system: LS174T colon cancer cells; assay: Metabolic labeling of LS174T cells with azido-sugars, azides detected by DBCO-Cy5 (confocal imaging, flow cytometry); assay type: cell-based
Method: General procedures for confocal imaging of azido-sugar labeled cells. Cells were seeded onto coverslips in a 6-well plate at a cell density of 40 k/well. Ac4ManAz or Ac3ManAz derivatives were added with a final concentration of 50 μM and the cells were incubated at 37° C. for 72 h. The medium was removed and washed with PBS for three times. DBCO-Cy5 (50 μM) in Opti-MEM was then added and the cells were incubated for another 1 h. Then the medium was removed and the cells were washed with PBS for three times. 4% paraformaldehyde (PFA) solution was added to fix the cells for 10 min, followed by staining of cell nucleus with DAPI (2 μg/mL) for 10 min. The coverslips were mounted on microscope slides with the addition of ProLong Gold antifade reagent, and the prepared sample was stored in dark for imaging.
General procedures for flow cytometry analysis of azido-sugar labeled cells. Cells were seeded onto coverslips in a 6-well plate at a cell density of 40 k/well. Ac4ManAz or Ac3ManAz derivatives were added and incubated with cells for 72 h. After removal of medium and multiple washing steps, DBCO-Cy5 in opti-MEM was added and incubated with cells at 37° C. for 1 h. The opti-MEM was then removed and cells were washed with PBS for three times. Cells were lifted by incubating with trypsin solution (1 mL) at 37° C. for 3 min and transferred to test tubes with addition of 4% PFA solution (0.5 mL). Twenty thousand cells per sample were analyzed by flow cytometry and data analysis was performed on the FCS Express software.
Ac3ManAzNB mediated controlled cell labeling. LS174T cells were seeded onto coverslips in a 6-well plate at a cell density of 40 k/well. Ac3ManAzNB with a final concentration of 50 μM was added. […] Cells without UV irradiation were continuously incubated for 72 h. Cell samples for confocal imaging and flow cytometry were then prepared following the above-mentioned procedures.
Ac3ManAzHQ mediated controlled cell labeling. LS174T colon cancer cells or Caco-2 colon cancer cells or human fibroblast IMR90 cells were seeded onto coverslips in a 6-well plate at a cell density of 40 k/well and allowed to attach for overnight. Ac3ManAzHQ with a final concentration of 50 μM was added, followed by the addition of curcumin with a final concentration of 50 μM. Cells treated with PBS or Ac3ManAzHQ only were used as control. After 72-h incubation, cell samples for confocal imaging and flow cytometry were prepared following the above-mentioned procedures.
E-S mediated controlled cell labeling in vitro. LS174T colon cancer cells or human fibroblast IMR90 cells were seeded onto coverslips in a 6-well plate at a cell density of 40 k/well. E-S with a final concentration of 50 μM was added, followed by the addition of either TSA (1 μM) or Z-FY-CHO (50 μM). Cells treated with PBS or E-S only were used as the control. After 72-h incubation, the medium was removed and cell samples for confocal imaging and GE-Analyzer measurements were prepared similarly to above-mentioned procedures.

[5] = test system: subcutaneous LS174T tumors; assay: In vivo tumor labeling after intratumoral injection of azido-sugars, DBCO-Cy5 i.v.; design: species or system athymic nude mice
Method: In vivo tumor labeling of Ac4ManAz, Ac3ManAzEt, and Ac3ManAzNB. LS174T tumor models were established on 6 week-old athymic nude mice by subcutaneous injection of LS174T colon cancer cells (1.5 million) in HBSS/matrigel (1/1, v/v) to both flanks. When the tumors grew to 5-6 mm, Ac4ManAz or Ac3ManAzEt or Ac3ManAzNB (25 mM, 20 μL) was injected into the left tumors once daily for three days while the same amount of PBS was injected to the right tumors as control (N=3 per group). At 24 h post the last injection, DBCO-Cy5 (5 mg/kg) was i.v. injected and its biodistribution was monitored via in vivo fluorescence imaging. Prior to imaging, nude mice were placed on the sample stage equipped with anesthesia input and output ports, and imaged by the Maestro In-Vivo Fluorescence Imaging System. The excitation filter of 575-605 nm was used. The tunable emission filter was automatically stepped in 10-nm increments from 630 to 850 nm with an exposure time of 50 ms for images taken at each wavelength. Collected images were analyzed by the Maestro software, which uses spectral unmixing algorithms to subtract autofluorescence from Cy5 signals. Tumors and major organs were harvested from mice at 24 h post injection of DBCO-Cy5. Ex vivo images were collected similarly using the Maestro system. Fluorescence intensity at selected ROIs was quantified using Maestro imaging software. All values were presented as means±standard deviation (n=3).
Western blot analysis of tissues. Tumors and organs harvested from azido-sugar treated mice were transferred into glass tubes containing 2 mL of lysis buffer (1% SDS, 100 mM Tris HCl, pH 7.4), homogenized, and incubated at 4° C. for 30 min. The lysates were then centrifuged at 3000 rcf for 10 min to remove the insoluble debris. Total soluble protein concentrations were determined by BCA assay and adjusted to 5 mg/mL for each group. The rest of procedures were the same as the above-mentioned western blot analysis of cells.
Confocal imaging of tumor tissue sections. After ex vivo imaging, tumors were directly frozen in O.C.T. compound and sectioned on a cryostat (Leica CM3050S) with a thickness of 6-8 μm. DAPI in PBS (2 μg/mL) was added onto the tissue-attaching microscope slides to stain cell nucleus. After 10 min, DAPI solution was removed and tissues were washed with PBS for three times. Coverslips were mounted on the microscope slides with the addition of ProLong Gold antifade reagent, and the prepared sample was stored in dark for confocal imaging.

LS174T tumors = assay: E-S mediated cancer-selective labeling in vivo, western blot analysis of tissues; design: species or system athymic nude mice; details: i.v. once daily three days, 24 h p.i.; liver, spleen, heart, lung, kidney
Method: (1) Western blot analysis of tissues. LS174T tumor models were established in 6 week-old athymic nude mice by subcutaneous injection of LS174T colon cancer cells (1.5 million) in HBSS/matrigel (1/1, v/v). When the tumors grew to 5-6 mm, E-S (60 mg/kg) was i.v. injected once daily for three days. Mice i.v. administered with Ac4ManAz (40 mg/kg, 10% DMSO in PBS) or PBS were used as control. At 24 h post the last injection, tumors and major organs were harvested, transferred into lysis buffer (2 mL), and homogenized. The lysates were incubated at 4° C. for 30 min, and insoluble debris was removed by centrifugation at 3000 rpm for 10 min. Total soluble protein concentrations were determined by BCA assay and adjusted to 5 mg/mL for each group. The rest of procedures were the same as the abovementioned general procedures for western blot analysis. Azido-labeled protein bands in tumor tissues and healthy tissues of all three groups were visualized and compared to understand the cancer-selective labeling capability of E-S in vivo.

LS174T cells = assay: Western blot analysis of LS174T cells treated with azido-sugars; assay type: cell-based; details: 72 h
Method: Western blot analysis of cells treated with azido-sugars. LS174T cells were seeded onto cell culture flasks (25 cm^2 growth area) at a density of 1×10^6 cells per plate in 5 mL of media. Different azido-sugars were added and incubated with cells for 72 h. The cells were washed with PBS twice and harvested from the flasks using a cell scraper. Cells were pelleted by centrifugation at 1000 rpm for 5 min and re-suspended in 200 μL of lysis buffer (1% SDS, 100 mM Tris.HCl, pH 7.4) containing 1 tablet protease inhibitor (EDTA-free). The lysate was incubated at 4° C. for 30 min, followed by centrifugation at 3000 rcf for 10 min to remove insoluble debris. The total concentration of soluble protein in each sample was determined by bicinchoninic acid (BCA) assay and adjusted to the same concentration. Then 20 μL of the lysate was taken out and incubated with phosphine-PEG3-biotin (2 μL, 5 mM in PBS) at 37° C. for 6 h. Loading buffer was added to each sample and samples were loaded onto 10% SDS-PAGE gel after heating at 95° C. After running the gel for 100 min, proteins were transferred to Hybond P membrane, followed by blocking of the membrane with 5% bovine serum albumin (BSA) in TBST (50 mM Tris.HCl, 150 mM NaCl, 0.1% Tween 20, pH 7.4) for 2 h. The membrane was then incubated with streptavidin-HRP (diluted 1:2000 in TBST) overnight at 4° C., rinsed with TBST for three times and developed by ECL Western Blotting Substrate. For fluorescent visualization of protein bands, 20 μL of cell lysate was directly incubated with DBCO-Cy3 solution for 3 h. After the gel running and membrane transfer, protein bands were visualized using an Image Quant LAS 4010 system with a Cy3/Cy3 (excitation/emission) channel.

COc1cccc2c1C(=O)c1c(O)c3c(c(O)c1C2=O)C[C@@](O)(C(=O)CO)C[C@@H]3O[C@H]1C[C@H](N)[C@H](O)[C@H](C)O1 [Doxo, doxorubicin]
Toxicity in mouse tissues (bone marrow, spleen) [1]: much greater toxicity

CC(/C=C/C(=O)NO)=C\[C@@H](C)C(=O)c1ccc(N(C)C)cc1 [TSA, Trichostatin A]
Turn-on fluorescence intensity of Naph-Lys in the presence of the inhibitor [2]: greatly decreased
Labeling efficiency of E-S in the presence of inhibitor [3]: significantly decreased the labeling efficiency
Labeling efficiency of E-S on co-incubation with inhibitor ([4]; LS174T cells co-incubated with E-S and inhibitor): greatly reduced

CC(=O)OC[C@H]1OC(OC(C)=O)[C@@H](NC(=O)CN=[N+]=[N-])[C@@H](OC(C)=O)[C@@H]1OC(C)=O (stereo partly drawn) [Ac4ManAz, tetraacetyl N-azidoacetylmannosamine]
In vivo Cy5 fluorescence intensity of pretreated left tumors vs control right tumors ([5]; 24 h p.i. of i.v. DBCO-Cy5): much stronger Cy5 fluorescence intensity
Ex vivo increase in Cy5 FI compared to the control tumors ([5]; ex vivo imaging of tumors): over 4 fold
Western blot of tumors (azido-modified glycoproteins) ([5]; intratumoral once daily for three days, tumors harvested 24 h p.i.): a series of azido-modified glycoproteins
Cy5 fluorescence of tumor sections (confocal imaging) ([5]; tumor sections after ex vivo imaging): strong Cy5 fluorescence
Cy5 fluorescence on the cell surface (CLSM) ([4]; LS174T cells, 50 μM azido-sugar three days (72 h), then DBCO-Cy5 1 h): strong Cy5 fluorescence on the cell surface
Cy5 fluorescence by flow cytometry ([4]; LS174T cells, compared with cells treated with Ac3ManAzEt or PBS): significantly enhanced Cy5 fluorescence
Azido-modified proteins in normal tissues (western blot) (LS174T tumors): non-specific labeling in normal tissues
Western blot of azido-glycoproteins (biotinylated with phosphine-PEG3-biotin) (LS174T cells): a series of protein bands

Reference: patent US11014953B2, “Trigger-activatable metabolic sugar precursors for cancer-selective labeling and targeting” (priority 2015, dated 2021)
